In patent US20050222147A1, “Process for the preparation of morpholine derivatives and intermediates therefore” (priority 2000, published 2005):
Structures can show the parent of a compound that is named as a salt.

target: T1, CCR-3 (Homo sapiens, UniProt P51677); assay: CCR-3 competition binding SPA (scintillation proximity assay); conditions: read-out: CCR-3 Binding Assay (pIC50) (converted)
T1 construct: expressed in transfected cells
T1 sequence (P51677 1-355): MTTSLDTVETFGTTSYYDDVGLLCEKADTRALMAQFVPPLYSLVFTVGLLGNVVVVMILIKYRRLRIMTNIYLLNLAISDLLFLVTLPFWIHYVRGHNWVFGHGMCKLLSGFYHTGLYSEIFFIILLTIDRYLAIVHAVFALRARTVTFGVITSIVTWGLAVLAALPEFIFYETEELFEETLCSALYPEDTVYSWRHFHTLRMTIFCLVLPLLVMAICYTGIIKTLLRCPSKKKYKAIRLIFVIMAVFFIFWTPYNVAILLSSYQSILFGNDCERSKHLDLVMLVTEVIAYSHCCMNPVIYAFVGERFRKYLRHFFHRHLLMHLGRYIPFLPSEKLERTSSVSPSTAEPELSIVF
Protocol: A CCR-3 competition binding SPA (scintillation proximity assay) was used to assess the affinity of novel compounds for CCR-3. Membranes prepared from K562 cells stably expressing CCR-3 (2.51 μg/well) were mixed with 0.25 mg/well wheat-germ agglutinin SPA beads (Amersham) and incubated in binding buffer (HEPES 50 mM, CaCl2 1 mM, MgCl2 5 mM, 0.5% BSA) at 4° C. for 1.5 hr. Following incubation, 20 pM of [^125I) eotaxin (Amersham) and increasing concentrations of compound (1 pM to 30 μM) were added and incubated in a 96 well plate for 2 hr at 22° C. then counted on a Microbeta plate counter. The total assay volume was 100 μl. Competition binding data were analysed by fitting the data with a four parameter logistic equation. Data are presented as the mean pIC50 values (negative logarithm of the concentration of compound which inhibits [^125I] eotaxin binding by 50%) from at least two experiments.

IC50 [nM]	SMILES
60.3	C[C@H]1CO[C@H](CNC(=O)Cc2ccccc2)CN1Cc1ccc(Cl)c(Cl)c1 (relative stereo) [Example 25, N-{[(trans)4-(3,4-Dichlorobenzyl)-5-methylmorpholin-2-yl]methyl}-2-phenylacetamide]
77.6	CSc1ccc(CC(=O)NCC2CN(Cc3ccc(Cl)c(Cl)c3)CCO2)cc1 (stereo not drawn) [Example 5, N-{[4-(3,4-Dichlorobenzyl)morpholin-2-yl]methyl}-2-[4-(methylthio)phenyl]acetamide]
138	O=C(Cc1ccc(F)c(F)c1)NCC1CN(Cc2ccc(Cl)c(Cl)c2)CCO1 (stereo not drawn) [Example 6, N-{[4-(3,4-Dichlorobenzyl)morpholin-2-yl]methyl}-2-(3,4-difluorophenyl)acetamide]
15.1	CN(C)S(=O)(=O)c1ccc(CC(=O)NCC2CN(Cc3ccc(Cl)c(Cl)c3)CCO2)cc1 (stereo not drawn) [Example 7, N-{[4-(3,4-Dichlorobenzyl)morpholin-2-yl]methyl}-2-{4-[(dimethylamino)sulfonyl]phenyl}acetamide salt with formic acid (1:1)]
145	O=C(Cc1cccc(Cl)c1)NCC1CN(Cc2ccc(Cl)c(Cl)c2)CCO1 (stereo not drawn) [Example 8, 2-(3-Chlorophenyl)-N-{[4-(3,4-dichlorobenzyl)morpholin-2-yl]methyl}acetamide]
158	NC(=O)c1ccc(CC(=O)NCC2CN(Cc3ccc(Cl)c(Cl)c3)CCO2)cc1 (stereo not drawn) [Example 10, 4-[2-({[4-(3,4Dichlorobenzyl)morpholin-2-yl]methyl}amino)-2-oxoethyl]benzamide]
240	O=C(Cc1cc(Cl)ccc1Cl)NCC1CN(Cc2ccc(Cl)c(Cl)c2)CCO1 (stereo not drawn) [Example 13, N-{[4-(3,4-Dichlorobenzyl)morpholin-2-yl]methyl}-2-(2,5-dichlorophenyl)acetamide]
339	O=C(Cc1ccc(C(F)(F)F)cc1)NCC1CN(Cc2ccc(Cl)c(Cl)c2)CCO1 (stereo not drawn) [Example 14]
110	COc1ccc(CC(=O)NCC2CN(Cc3ccc(Cl)c(Cl)c3)CCO2)cc1 (stereo not drawn) [Example 22, N-{[4-(3,4-Dichlorobenzyl)morpholin-2-yl]methyl}-2-(4-methoxyphenyl)acetamide]

Second part, the compound before the results:

SMILES	IC50 [nM]
Cc1cc(F)ccc1CC(=O)NCC1CN(Cc2ccc(Cl)c(Cl)c2)CCO1 (stereo not drawn) [Example 19, N-{[4-(3,4-Dichlorobenzyl)morpholin-2-yl]methyl}-2-(4-fluoro-2-methylphenyl)acetamide]	832
COc1ccc2[nH]c(C)c(CC(=O)NCC3CN(Cc4ccc(Cl)c(Cl)c4)CCO3)c2c1 (stereo not drawn) [Example 31, N-{[4-(3,4-Dichlorobenzyl)morpholin-2-yl]methyl}-2-(5-methoxy-2-methyl-1H-indol-3-yl)acetamide]	513
Cc1nn(CC(=O)NCC2CN(Cc3ccc(Cl)c(Cl)c3)CCO2)c(C)c1Br (stereo not drawn) [Example 35]	155
O=C(Cc1ccco1)NCC1CN(Cc2ccc(Cl)c(Cl)c2)CCO1 (stereo not drawn) [Example 38, N-{[4-(3,4-Dichlorobenzyl)morpholin-2-yl]methyl}-2-(2-furyl)acetamide]	100
O=C(Cn1nnc(-c2ccccc2)n1)NC[C@H]1CN(Cc2ccc(Cl)c(Cl)c2)CCO1 [Example 44]	6.76
CS(=O)(=O)Nc1ccc(CC(=O)NCC2CN(Cc3ccc(F)c(F)c3)CCO2)cc1 (stereo not drawn) [Example 45]	13.2
CS(=O)(=O)Nc1ccc(CC(=O)NC[C@H]2CN(Cc3ccc(F)cc3)CCO2)cc1 [Example 46, N-{[(2S)-4-(4-Fluorobenzyl)morpholin-2-yl]methyl}-2-{4-[(methylsulfonyl)amino]phenyl}acetamide]	72.4
O=C(Cc1cccc(C(=O)NC2CC2)c1)NCC1CN(Cc2ccc(Cl)c(Cl)c2)CCO1 (stereo not drawn) [Example 53, N-Cyclopropyl-3-[2-({[(3,4-dichlorobenzyl)morpolin-2-yl]methyl}amino)-2-oxoethyl]benzamide]	4.07
Cc1oc(-c2ccccc2)nc1CC(=O)NC[C@H]1CN(Cc2ccc(Cl)c(Cl)c2)CCO1 [Example 54, N-{[(2S)-4-(3,4-Dichlorobenzyl)morpholin-2-yl]methyl}-2-(5-methyl-2-phenyl-1,3-oxazol-4-yl)acetamide]	24
Cc1oc(-c2ccccc2)nc1CC(=O)NC[C@@H]1CN(Cc2ccc(Cl)c(Cl)c2)CCO1 [Example 55, N-{[(2R)-4-(3,4-Dichlorobenzyl)morpholin-2-yl]methyl}-2-(5-methyl-2-phenyl-1,3-oxazol-4-yl)acetamide]	398
NS(=O)(=O)c1cccc(CC(=O)NC[C@H]2CN(Cc3ccc(Cl)c(Cl)c3)CCO2)c1 [Example 162]	12.6

target: eosinophil chemotaxis; assay: Eosinophil chemotaxis assay (eotaxin-induced); assay type: cell-based, human; conditions: functional pKi (fpKi)
Protocol: (b) Eosinophil Chemotaxis Assay.
Compounds were evaluated for their inhibitory effect on eosinophil chemotaxis. Eosinophils were purified from human peripheral blood by standard CD16 cell depletion using a Miltenyi cell separation column and a magnetic Super Macs magnet as previously described (Motegi & Kita, 1998; J. Immunology. 161:4340-6). Cells were re-suspended in RPMI 1640/10% FCS solution and incubated with calcein-AM (Molecular Probes) at 37° C. for 30 mins. Following incubation, the eosinophils were centrifuged at 400 g for 5 min and re-suspended in RPMI/FCS at 2.2 million/ml. Cells. were then incubated in the presence of increasing concentration of compounds (1 pM to 30 μM) at 37° C. for 30 mins. For control responses cells were incubated with RPMI/FCS only. The agonist eotaxin (either a concentration response curve or for the functional inhibition curves an EC80 concentration) was added to the lower chamber of a 96 well chemotaxis plate (5 μm filter: Receptor Technologies). Eosinophils (50 μl of 2 million/ml cells) were added to the top chamber of the filter plate and incubated at 37° C. for 45 mins. Cells remaining on top of the chemotaxis filter were removed and the number of eosinophils which had migrated were quantified by reading the plate on a fluorescent plate reader. Inhibition curves for the effect of compounds on eosinophil chemotaxis were analysed by fitting the data with a four parameter logistic equation. Functional pK1 values (fpK1) were generated using the equation below (Lazareno & Birdsall, 1995. Br. J. Pharmacol 109: 1110-9). [formula] (c) Guinea-pig Ovalbumin Model

CCR-3 Eosinophil Chemotaxis Assay (fpKi)	SMILES
7.39	C[C@H]1CO[C@H](CNC(=O)Cc2ccc(Cl)cc2)CN1Cc1ccc(Cl)c(Cl)c1 (relative stereo) [Example 27, 2-(4-Chlorophenyl)-N-{[(trans)-4-(3,4-dichlorobenzyl)-5-methylmorpholin-2-yl]methyl}acetamide]
8.31	CS(=O)(=O)c1ccc(CC(=O)NC[C@H]2CN(Cc3ccc(Cl)c(Cl)c3)CCO2)cc1 (single isomer, unassigned) [Example 39]

The next lines start with the compound.

SMILES	CCR-3 Eosinophil Chemotaxis Assay (fpKi)
CS(=O)(=O)c1ccc(CC(=O)NCC2CN(Cc3ccc(Cl)c(Cl)c3)CCO2)cc1.O=CO (stereo not drawn) [Example 2, N-{[4-(3,4-Dichlorobenzyl)morpholin-2-yl]methyl}-2-[4-(methylsulfonyl)phenyl]acetamide salt with formic acid (1:1)]	6.51
O=C(Cc1cccc(F)c1)NCC1CN(Cc2ccc(Cl)c(Cl)c2)CCO1 (stereo not drawn) [Example 3, N-{[4-(3,4-Dichlorobenzyl)morpholin-2-yl]methyl}-2-(3-fluorophenyl)acetamide]	7.15
CN(C)c1ccc(CC(=O)NCC2CN(Cc3ccc(Cl)c(Cl)c3)CCO2)cc1.O=CO (stereo not drawn) [Example 12, N-{[4-(3,4-Dichlorobenzyl)morpholin-2-yl]methyl}-2-[4-(dimethylamino)phenyl]acetamide salt with formic acid (1:1)]	6.82
O=C(Cc1cc(C(F)(F)F)cc(C(F)(F)F)c1)NCC1CN(Cc2ccc(Cl)c(Cl)c2)CCO1 (stereo not drawn) [Example 17, 2-[3,5-Bis(trifluoromethyl)phenyl]-N-{[4-(3,4-dichlorobenzyl)morpholin-2-yl]methyl}acetamide]	6.24
O=C(Cc1ccsc1)NCC1CN(Cc2ccc(Cl)c(Cl)c2)CCO1 (stereo not drawn) [Example 32, N-{[4-(3,4-Dichlorobenzyl)morpholin-2-yl]methyl}-2-thien-3-ylacetamide]	7.32
O=C(Cc1csc(-c2cnccn2)n1)NCC1CN(Cc2ccc(Cl)c(Cl)c2)CCO1 (stereo not drawn) [Example 37, N-{[4-(3,4-Dichlorobenzyl)morpholin-2-yl]methyl}-2-(2-pyrazin-2-yl-1,3-thiazol-4-yi)acetamide]	7.97
Cc1oc(-c2ccc(F)cc2)nc1CC(=O)NCC1CN(Cc2ccc(Cl)c(Cl)c2)CCO1 (stereo not drawn) [Example 41, N-{[4-(3,4-Dichlorobenzyl)morpholin-2-yl]methyl}-2-[2-(4-fluorophenyl)-5-methyl-1,3-oxazol-4-yl]acetamide]	7.99
O=C(Cc1csc(-c2cnccn2)n1)NC[C@H]1CN(Cc2ccc(Cl)c(Cl)c2)CCO1 [Example 42, N-([(2S)-4-(3,4-Dichlorobenzyl)morpholin-2-yl]methyl}-2-(2-pyrazin-2-yl-1,3-thiazol-4-yl)acetamide]	9.32
CS(=O)(=O)Nc1cccc(CC(=O)NC[C@H]2CN(Cc3ccc(Cl)s3)CCO2)c1 [Example 49, N-({(2S)-4-[(5-Chlorothien-2-yl)methyl]morpholin-2-yl}methyl)-2-{3-[(methylsulfonyl)amino]phenyl]acetamide]	8.07
Cc1oc(-c2ccccc2)nc1CC(=O)NC[C@H]1CN(Cc2ccc(Cl)c(Cl)c2)CCO1 [Example 54, N-{[(2S)-4-(3,4-Dichlorobenzyl)morpholin-2-yl]methyl}-2-(5-methyl-2-phenyl-1,3-oxazol-4-yl)acetamide]	7.96
NS(=O)(=O)c1cccc(CC(=O)NC[C@H]2CN(Cc3ccc(Cl)c(Cl)c3)CCO2)c1 [Example 162]	8.2
